The values below come from patent publication US10947188B2, “Small molecule ferroptosis inducers” (THE TRUSTEES OF COLUMBIA UNIVERSITY IN THE CITY OF NEW YORK, priority 2016, dated 2021).

The test system of one assay is HT-1080 cells. The experiment in a line: Cell viability assay (Alamar Blue), lethal compounds with or without modulators. Format: cell-based. The settings on record: for effect of ferroptosis inhibitors (α-tocopherol, deferoxamine) on lethality: cotreatment. As to the method: 1,000 cells per 36 μl were seeded in each well in 384-well plates. Lethal compounds were dissolved, and a twofold, 12-point dilution series was prepared in DMSO. Compound solutions were further diluted with media at 1:25, and 4 μl per well of the diluted solutions was added to cell cultures immediately after cells were seeded. […] When other cell-death-modulating compounds (100 nM sodium selenite, 1 μM cerivastatin, 100 μg/mL mevalonic acid) were used in cotreatments, they were supplemented to cell culture for 24 h before lethal compounds were added to cell culture, after which cells were further incubated for 24 h at 37° C. under 5% CO2. On the day of the viability measurement, we added 10 μl per well of 50% Alamar Blue diluted in media (Life Technologies) and further incubated the cells at 37° C. for 6 h. Fluorescence intensity (excitation/emission: 530/590) was measured with a Victor 3 plate reader (PerkinElmer), and the normalized viability was calculated as VL=(IL−I0)/(IV−I0), where VL, I0, IV, and IL are the normalized viability and the raw fluorescence intensities from the wells containing media, cells treated with a vehicle (negative control), and cells with the lethal compound (L), respectively. When the effect of a chemical modulator (M) on L was calculated, we instead used the equation VL|M=(IM,L−I0)/(IM,V−I0), where VL|M, IM,L and IM,V are the normalized viability, and fluorescence intensity from cells treated with […], respectively. The viability was typically measured in biological triplicate unless otherwise specified. A representative dose-response curve, the mean and standard error of normalized viability from one replicate were plotted. […]
In general terms: Alamar Blue is a resazurin reagent that responds to reducing activity.

For assay [1], the system named is BJeLR, DRD, BJeHLT, and BJeH. The assay is described as follows: Viability of four engineered BJ cell lines (HRAS G12V selectivity). Format: cell-based, human. The conditions noted are these: 48 h.
The next assay has as its system HT-1080 or BJeLR cells. The assay is described as follows: Analysis of ROS generation (H2-DCFDA flow cytometry). It is filed as cell-based. As to the method:
Grew 200,000 HT-1080 or BJeLR cells in six-well plates at 37° C. for 16 h. Cells were treated with test compounds, trypsinized, pelleted, and washed once with PBS. For lipophilic or aqueous ROS detection, cells were re-suspended in Hanks' Balanced Salt Solution (HBSS; Life Technologies) containing test compounds as well as C11-BODIPY(581/591) (2 μM) or H2-DCFDA (25 μM), respectively (Life Technologies), and incubated for 10 min at 37° C. Cells were then pelleted, re-suspended in 500 μL HBSS, strained through a 40-μm cell strainer (BD Falcon), and analyzed using a BD Accuri C6 flow cytometer (BD Biosciences). Both dyes were measured in the FL1 channel. Experiments were done in biological triplicates.
(In flow cytometry, cells or beads pass a laser one at a time.)

The test system of a further assay is GPX4. The experiment in a line: Western blotting of GPX4 protein abundance. Format: cell-based, human. As to the method:
Seeded 300,000 cells (HT-1080 or BJeLR) per well in six-well plates. For cotreatment, ferroptosis inducers (10 μM erastin for 11 h, 0.5 μM (1S, 3R)-RSL3 for 2 h, or 5 μM FIN56) and 100 μM α-tocopherol were added to cell culture at the same time, and cells were then incubated for 10 h (FIG. 2E). When other death-modulating compounds (100 nM sodium selenite, 1 μM cerivastatin, 100 μg/mL mevalonic acid, 30 μM C75, or 2 μM cerulenin) were used in cotreatments, cells were pre-incubated with the modulators for 24 h before being treated with ferroptosis inducers for 6 h. Cell lysis, SDS-PAGE and protein transfer to PVDF membrane were performed as previously described (Dixon et al. 2012). We used the following antibodies: anti-human α-tubulin (Santa Cruz Biotechnology, sc-32293, 1:10,000 dilution), anti-human GPX4 (Abcam, ab41787, 1:2,000 dilution), anti-human GPX1 (R&D Systems, AF3798, 1:1,000 dilution), and anti-human SQS (Abcam, ab109723 for full-length, ab195046 for truncated, both at 1:1,000 dilution). Secondary antibodies were from LI-COR (1:3,000 dilution). The PVDF membranes labeled with primary and secondary antibodies were scanned using an Odyssey Imaging System (LI-COR). Experiments were performed in biological triplicates, and the mean±s.e. of intensity was plotted.
(In western blotting, separated proteins are transferred to a membrane and probed.)

Where a SMILES comes first, the peptide text is derived from it. The star is where a group is joined. Cbz = O=C(OCc1ccccc1)*

As to `N/C(Cc1ccc(Cl)cc1)=N\OC(=O)c1cccc2ccccc12` [CIL70], in the assay with HT-1080 cells (HT-1080 cells), the “effect of ferroptosis inhibitors (α-tocopherol, deferoxamine) on lethality” value (“effect of ferroptosis inhibitors” below) is “strongly suppressed by ferroptosis inhibitors”. The “oncogenic RAS selectivity in the BJ engineered cell line series” value (“oncogenic RAS selectivity” for short) in assay [1] was “did not exhibit oncogenic RAS selectivity”. Moreover, in the assay with HT-1080 or BJeLR cells, the “ROS accumulation detected using H2-DCFDA” value is “induced ROS accumulation”.
Turning to `CC(C)C[C@@H](C=O)NC(=O)[C@H](CC(C)C)NC(=O)[C@H](CC(C)C)NC(=O)OCc1ccccc1` [MG132, reference compound] (Cbz-Leu-Leu-Leu-aldehyde), the “effect on FIN56-induced decrease of GPX4 protein abundance” value in the assay on GPX4 (5 μM FIN56) is given as “did not inhibit GPX4 degradation significantly”.
Turning to `N/C(=N\OC(=O)C12CC3CC(CC(C3)C1)C2)c1ccccc1` [CIL41], in the assay on HT-1080 cells (HT-1080 cells), the “effect of ferroptosis inhibitors” value is on record as “strongly suppressed by ferroptosis inhibitors”. Also, the “oncogenic RAS selectivity” value in assay [1] is “did not exhibit oncogenic RAS selectivity”. For the same molecule, the “ROS accumulation detected using H2-DCFDA” value with HT-1080 or BJeLR cells is on record as “induced ROS accumulation”.
Take `C[C@@H]1C[C@@H]([C@H](O)CC2CC(=O)NC(=O)C2)C(=O)[C@@H](C)C1` [cycloheximide, Cycloheximide, reference compound]: the “amount of GPX4 protein compared to α-tubulin after translation inhibition” value with GPX4 is given as “did not show substantially decreased amounts of GPX4 protein”.
As to `O=S(=O)(NC1CCCCC1)c1ccc2c(c1)C(=NO)c1cc(S(=O)(=O)NC3CCCCC3)ccc1-2` [FIN56, N2,N7-dicyclohexyl-9-(hydroxyimino)-9H-fluorene-2,7-disulfonamide], the “effect of ferroptosis inhibitors” value in the assay on HT-1080 cells (HT-1080 cells) is “fully suppressed”. For the same molecule, the “suppression of lethality by mevalonate-pathway modulators (FPP, YM-53601, idebenone) and α-tocopherol” value with HT-1080 cells (HT-1080 cells, modulatory profiling scheme) was “potently suppressed by all the compounds”. For the same molecule, the “oncogenic RAS selectivity” value in assay [1] is “greater oncogenic RAS selectivity”. The “potency compared to CIL56” value in assay [1] (BJ cell line series) is listed as “greater potency”. In the assay with HT-1080 or BJeLR cells (BJeLR, 5 μM FIN56 vs 0.5 μM (1S, 3R)-RSL3, 25 μM H2-DCFDA), the “kinetics of ROS accumulation compared to (1S, 3R)-RSL3” value is “slower to induce the accumulation of ROS”. In addition, the “abundance of GPX4 protein” value in the assay with GPX4 (BJeLR, cotreatment with 100 μM α-tocopherol, 10 h, FIN56 5 μM) is “substantially decreased”.
On to `O=S(=O)(c1ccc2c(c1)C(=NO)c1cc(S(=O)(=O)N3CCCCC3)ccc1-2)N1CCCCC1` [CIL56, 2,7-bis(piperidin-1-ylsulfonyl)-9H-fluoren-9-one oxime], for which the “effect of ferroptosis inhibitors” value with HT-1080 cells (HT-1080 cells) is “suppressed the lethality of low concentrations”. The “suppression of lethality by antioxidants and iron chelators” value in the assay with HT-1080 cells (ferroptosis-sensitive HT-1080 cells) is recorded as “up to 10 fold”. For the same molecule, in assay [1], the “oncogenic RAS selectivity” value is recorded as “retained some degree of selectivity toward oncogenic-RAS-expressing cells”.
